In general, Kd refers to the free concentration of one partner at which half of the binding sites on the other are occupied at equilibrium, for simple one-to-one binding.

Activity calls are given as the source filed them. Where only a bound is given, the exact number is not on record here.

This note sets out measurements from ChEMBL document CHEMBL3991601, “The target landscape of clinical kinase drugs” (Science, 2017).

The target in assay [1] is DNA topoisomerase 2-alpha (Homo sapiens, UniProt P11388).
The target of assay [2] is G protein-coupled receptor kinase 6 (Homo sapiens, UniProt P43250).
G protein-coupled receptor kinase 6, sequence (P43250 whole entry, the tested form may be a part): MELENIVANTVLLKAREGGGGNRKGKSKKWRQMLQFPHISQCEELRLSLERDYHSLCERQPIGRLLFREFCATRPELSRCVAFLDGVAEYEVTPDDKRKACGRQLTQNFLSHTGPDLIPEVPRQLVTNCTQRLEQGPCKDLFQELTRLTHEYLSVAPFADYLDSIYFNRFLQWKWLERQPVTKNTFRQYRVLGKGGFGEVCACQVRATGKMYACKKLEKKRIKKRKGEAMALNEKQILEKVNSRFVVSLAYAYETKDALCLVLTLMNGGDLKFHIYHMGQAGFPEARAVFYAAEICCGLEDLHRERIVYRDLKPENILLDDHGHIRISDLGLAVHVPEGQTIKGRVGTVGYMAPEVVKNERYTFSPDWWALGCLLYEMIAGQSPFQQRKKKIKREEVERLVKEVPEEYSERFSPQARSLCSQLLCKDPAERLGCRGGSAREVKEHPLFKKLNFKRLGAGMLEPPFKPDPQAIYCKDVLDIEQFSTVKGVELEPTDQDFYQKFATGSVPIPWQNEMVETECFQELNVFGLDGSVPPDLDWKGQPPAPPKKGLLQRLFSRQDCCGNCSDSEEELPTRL
The target in assay [3] is PAS domain-containing serine/threonine-protein kinase (Homo sapiens, UniProt Q96RG2).
The target of assay [4] is Dual specificity protein kinase CLK4 (Homo sapiens, UniProt Q9HAZ1).
Dual specificity protein kinase CLK4, sequence (Q9HAZ1 whole entry): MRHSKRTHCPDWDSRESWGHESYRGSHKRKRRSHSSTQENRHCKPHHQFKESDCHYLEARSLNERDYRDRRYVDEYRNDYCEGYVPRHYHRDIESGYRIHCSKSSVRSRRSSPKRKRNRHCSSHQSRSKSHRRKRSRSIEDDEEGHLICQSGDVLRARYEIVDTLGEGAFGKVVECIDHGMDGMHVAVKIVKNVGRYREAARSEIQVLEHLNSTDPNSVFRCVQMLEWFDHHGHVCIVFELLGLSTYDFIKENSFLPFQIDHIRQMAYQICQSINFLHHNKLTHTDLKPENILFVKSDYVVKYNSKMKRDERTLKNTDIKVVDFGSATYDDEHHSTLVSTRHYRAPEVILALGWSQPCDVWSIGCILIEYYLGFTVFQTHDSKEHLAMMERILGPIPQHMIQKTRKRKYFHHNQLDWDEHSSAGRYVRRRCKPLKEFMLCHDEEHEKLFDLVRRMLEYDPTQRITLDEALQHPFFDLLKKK
Assay [5] deals with Hepatocyte growth factor receptor (Homo sapiens, UniProt P08581).
Hepatocyte growth factor receptor, sequence (P08581 whole entry): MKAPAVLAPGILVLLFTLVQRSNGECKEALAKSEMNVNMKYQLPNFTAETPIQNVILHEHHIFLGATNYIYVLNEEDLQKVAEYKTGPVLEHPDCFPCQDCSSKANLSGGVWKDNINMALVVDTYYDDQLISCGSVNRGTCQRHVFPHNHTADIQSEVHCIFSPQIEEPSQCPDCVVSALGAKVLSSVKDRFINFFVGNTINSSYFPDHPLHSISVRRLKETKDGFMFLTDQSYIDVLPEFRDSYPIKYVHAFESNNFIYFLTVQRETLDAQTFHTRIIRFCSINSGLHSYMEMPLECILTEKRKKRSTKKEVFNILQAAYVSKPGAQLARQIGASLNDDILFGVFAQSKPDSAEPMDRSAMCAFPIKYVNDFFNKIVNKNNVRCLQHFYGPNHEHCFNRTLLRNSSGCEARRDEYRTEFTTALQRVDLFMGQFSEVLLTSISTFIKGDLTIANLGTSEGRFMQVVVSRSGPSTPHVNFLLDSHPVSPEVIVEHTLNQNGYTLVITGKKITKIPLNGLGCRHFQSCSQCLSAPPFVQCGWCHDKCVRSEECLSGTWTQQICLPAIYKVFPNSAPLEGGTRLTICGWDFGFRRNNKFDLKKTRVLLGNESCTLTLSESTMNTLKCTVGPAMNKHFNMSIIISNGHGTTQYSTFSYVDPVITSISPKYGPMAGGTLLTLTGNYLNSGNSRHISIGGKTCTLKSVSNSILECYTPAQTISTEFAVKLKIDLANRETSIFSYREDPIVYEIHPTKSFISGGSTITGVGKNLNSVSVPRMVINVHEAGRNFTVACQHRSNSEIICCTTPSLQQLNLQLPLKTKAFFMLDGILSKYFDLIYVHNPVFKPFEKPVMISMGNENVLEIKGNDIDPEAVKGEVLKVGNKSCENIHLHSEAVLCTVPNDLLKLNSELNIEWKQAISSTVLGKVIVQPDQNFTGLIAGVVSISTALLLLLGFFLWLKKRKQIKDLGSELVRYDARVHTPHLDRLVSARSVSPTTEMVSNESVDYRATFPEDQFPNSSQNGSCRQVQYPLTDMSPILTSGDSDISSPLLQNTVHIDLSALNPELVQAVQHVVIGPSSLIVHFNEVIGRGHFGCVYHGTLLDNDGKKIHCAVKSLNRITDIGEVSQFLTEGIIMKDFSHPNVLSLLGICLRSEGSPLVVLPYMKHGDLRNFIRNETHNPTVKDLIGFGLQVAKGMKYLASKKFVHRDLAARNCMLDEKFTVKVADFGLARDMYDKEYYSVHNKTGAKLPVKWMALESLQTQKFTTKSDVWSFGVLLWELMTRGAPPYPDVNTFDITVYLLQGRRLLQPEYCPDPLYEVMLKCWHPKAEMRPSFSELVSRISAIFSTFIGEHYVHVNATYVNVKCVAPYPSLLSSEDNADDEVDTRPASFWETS
Assay [6] has as its target Proto-oncogene tyrosine-protein kinase receptor Ret (Homo sapiens, UniProt P07949).
Assay [7] has as its target Serine/threonine-protein kinase Nek7 (Homo sapiens, UniProt Q8TDX7).
The target of assay [8] is Serine/threonine-protein kinase PAK 6 (Homo sapiens, UniProt Q9NQU5).
The target of assay [9] is Serine/threonine-protein kinase 24 (Homo sapiens, UniProt Q9Y6E0).
The target in assay [10] is Choline-phosphate cytidylyltransferase A (Homo sapiens, UniProt P49585).
Choline-phosphate cytidylyltransferase A, sequence (P49585 whole entry): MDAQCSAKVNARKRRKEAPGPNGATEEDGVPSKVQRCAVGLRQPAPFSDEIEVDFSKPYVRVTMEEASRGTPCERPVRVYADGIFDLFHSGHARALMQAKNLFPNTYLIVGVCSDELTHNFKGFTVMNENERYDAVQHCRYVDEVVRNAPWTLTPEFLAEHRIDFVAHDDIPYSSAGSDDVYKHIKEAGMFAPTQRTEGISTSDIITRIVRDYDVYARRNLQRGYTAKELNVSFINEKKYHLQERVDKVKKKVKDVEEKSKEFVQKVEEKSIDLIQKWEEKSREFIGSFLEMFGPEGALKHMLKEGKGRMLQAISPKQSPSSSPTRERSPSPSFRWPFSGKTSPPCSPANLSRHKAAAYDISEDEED
The target of assay [11] is Dual specificity testis-specific protein kinase 2 (Homo sapiens, UniProt Q96S53).
Dual specificity testis-specific protein kinase 2, sequence (Q96S53 whole entry): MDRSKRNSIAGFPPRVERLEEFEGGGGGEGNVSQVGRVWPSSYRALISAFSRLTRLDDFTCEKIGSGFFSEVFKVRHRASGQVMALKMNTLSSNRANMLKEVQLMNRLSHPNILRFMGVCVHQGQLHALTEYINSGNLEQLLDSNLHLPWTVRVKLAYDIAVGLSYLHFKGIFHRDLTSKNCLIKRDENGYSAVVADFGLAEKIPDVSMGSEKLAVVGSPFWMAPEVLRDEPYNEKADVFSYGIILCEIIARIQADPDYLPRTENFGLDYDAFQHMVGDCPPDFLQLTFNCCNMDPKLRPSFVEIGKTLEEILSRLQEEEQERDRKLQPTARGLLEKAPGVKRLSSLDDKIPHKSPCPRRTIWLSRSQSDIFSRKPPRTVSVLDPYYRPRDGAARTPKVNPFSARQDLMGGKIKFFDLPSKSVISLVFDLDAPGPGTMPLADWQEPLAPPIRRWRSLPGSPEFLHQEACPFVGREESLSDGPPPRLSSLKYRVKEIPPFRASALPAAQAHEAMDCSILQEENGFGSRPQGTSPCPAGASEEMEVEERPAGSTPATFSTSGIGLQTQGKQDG
The target of assay [12] is Dual specificity testis-specific protein kinase 1 (Homo sapiens, UniProt Q15569).
Dual specificity testis-specific protein kinase 1, sequence (Q15569 whole entry): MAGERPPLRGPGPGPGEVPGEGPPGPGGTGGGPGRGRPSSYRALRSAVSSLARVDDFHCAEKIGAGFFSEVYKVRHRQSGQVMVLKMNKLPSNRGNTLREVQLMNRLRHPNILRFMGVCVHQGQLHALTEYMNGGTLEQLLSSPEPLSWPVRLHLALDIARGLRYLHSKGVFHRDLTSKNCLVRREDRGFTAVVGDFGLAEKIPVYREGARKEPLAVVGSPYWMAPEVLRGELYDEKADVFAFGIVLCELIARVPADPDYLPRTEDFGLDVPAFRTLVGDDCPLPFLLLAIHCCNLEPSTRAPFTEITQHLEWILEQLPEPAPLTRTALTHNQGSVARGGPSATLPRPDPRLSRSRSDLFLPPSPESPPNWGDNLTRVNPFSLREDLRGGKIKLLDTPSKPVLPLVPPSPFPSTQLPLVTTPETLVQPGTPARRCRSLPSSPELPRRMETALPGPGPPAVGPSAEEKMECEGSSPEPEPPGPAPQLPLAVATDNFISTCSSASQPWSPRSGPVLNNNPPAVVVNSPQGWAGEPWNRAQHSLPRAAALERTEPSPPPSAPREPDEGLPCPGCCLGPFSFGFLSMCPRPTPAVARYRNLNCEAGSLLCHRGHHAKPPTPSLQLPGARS
A further assay has as its target Myosin-10 (Homo sapiens, UniProt P35580).
Assay [13] concerns the target T1, ATP-dependent RNA helicase DHX30 (Homo sapiens, UniProt Q7L2E3).
T1 sequence (Q7L2E3 whole entry): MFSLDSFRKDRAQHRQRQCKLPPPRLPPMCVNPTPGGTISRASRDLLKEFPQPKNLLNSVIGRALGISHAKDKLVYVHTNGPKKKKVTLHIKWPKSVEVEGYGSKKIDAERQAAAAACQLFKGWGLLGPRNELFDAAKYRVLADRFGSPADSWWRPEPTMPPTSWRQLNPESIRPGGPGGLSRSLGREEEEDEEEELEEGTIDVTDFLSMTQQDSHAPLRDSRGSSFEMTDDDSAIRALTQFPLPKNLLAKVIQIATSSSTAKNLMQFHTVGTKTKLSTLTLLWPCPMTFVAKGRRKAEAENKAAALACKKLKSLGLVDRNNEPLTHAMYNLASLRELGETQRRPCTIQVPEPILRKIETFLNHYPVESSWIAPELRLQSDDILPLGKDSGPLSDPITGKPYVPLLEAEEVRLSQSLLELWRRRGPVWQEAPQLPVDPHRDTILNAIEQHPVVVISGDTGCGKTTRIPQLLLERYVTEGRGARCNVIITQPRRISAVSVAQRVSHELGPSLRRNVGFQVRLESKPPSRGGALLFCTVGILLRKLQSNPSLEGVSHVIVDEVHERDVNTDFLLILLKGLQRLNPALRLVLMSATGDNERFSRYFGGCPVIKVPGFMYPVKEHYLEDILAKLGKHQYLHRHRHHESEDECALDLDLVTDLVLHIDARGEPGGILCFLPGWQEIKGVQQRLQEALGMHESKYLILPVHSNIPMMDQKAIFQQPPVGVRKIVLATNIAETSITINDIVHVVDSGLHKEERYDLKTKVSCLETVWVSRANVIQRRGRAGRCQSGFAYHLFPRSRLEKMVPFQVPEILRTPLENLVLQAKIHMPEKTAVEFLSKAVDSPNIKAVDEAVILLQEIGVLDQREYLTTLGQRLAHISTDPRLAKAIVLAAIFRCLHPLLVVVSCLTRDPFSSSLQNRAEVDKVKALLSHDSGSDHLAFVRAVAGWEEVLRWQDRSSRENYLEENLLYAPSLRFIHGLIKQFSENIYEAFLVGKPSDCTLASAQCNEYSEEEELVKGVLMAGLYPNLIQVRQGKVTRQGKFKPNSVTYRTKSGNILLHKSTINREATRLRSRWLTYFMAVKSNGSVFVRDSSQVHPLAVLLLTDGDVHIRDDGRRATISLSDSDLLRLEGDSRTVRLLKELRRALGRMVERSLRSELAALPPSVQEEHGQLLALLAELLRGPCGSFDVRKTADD

The target in assay [14] is Uncharacterized aarF domain-containing protein kinase 5 (Homo sapiens, UniProt Q3MIX3).
Uncharacterized aarF domain-containing protein kinase 5, sequence (Q3MIX3 whole entry, the tested form may be a part): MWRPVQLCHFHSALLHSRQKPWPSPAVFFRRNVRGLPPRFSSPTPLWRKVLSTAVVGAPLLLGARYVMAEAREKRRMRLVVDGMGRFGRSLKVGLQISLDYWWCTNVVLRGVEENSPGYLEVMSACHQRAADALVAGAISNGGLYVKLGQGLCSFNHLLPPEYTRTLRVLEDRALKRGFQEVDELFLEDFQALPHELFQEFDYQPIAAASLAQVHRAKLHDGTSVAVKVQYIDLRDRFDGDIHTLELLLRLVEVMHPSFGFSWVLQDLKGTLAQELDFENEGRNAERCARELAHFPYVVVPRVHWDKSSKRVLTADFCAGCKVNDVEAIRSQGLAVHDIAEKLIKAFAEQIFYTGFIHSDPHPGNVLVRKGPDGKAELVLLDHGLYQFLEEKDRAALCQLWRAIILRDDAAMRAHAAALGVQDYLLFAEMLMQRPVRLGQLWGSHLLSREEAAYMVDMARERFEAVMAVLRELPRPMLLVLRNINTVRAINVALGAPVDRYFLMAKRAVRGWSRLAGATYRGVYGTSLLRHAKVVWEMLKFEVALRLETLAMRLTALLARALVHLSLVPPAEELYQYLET
Assay [15] has as its target T2, Dual specificity protein kinase TTK (Homo sapiens, UniProt P33981).
T2 sequence (P33981 whole entry): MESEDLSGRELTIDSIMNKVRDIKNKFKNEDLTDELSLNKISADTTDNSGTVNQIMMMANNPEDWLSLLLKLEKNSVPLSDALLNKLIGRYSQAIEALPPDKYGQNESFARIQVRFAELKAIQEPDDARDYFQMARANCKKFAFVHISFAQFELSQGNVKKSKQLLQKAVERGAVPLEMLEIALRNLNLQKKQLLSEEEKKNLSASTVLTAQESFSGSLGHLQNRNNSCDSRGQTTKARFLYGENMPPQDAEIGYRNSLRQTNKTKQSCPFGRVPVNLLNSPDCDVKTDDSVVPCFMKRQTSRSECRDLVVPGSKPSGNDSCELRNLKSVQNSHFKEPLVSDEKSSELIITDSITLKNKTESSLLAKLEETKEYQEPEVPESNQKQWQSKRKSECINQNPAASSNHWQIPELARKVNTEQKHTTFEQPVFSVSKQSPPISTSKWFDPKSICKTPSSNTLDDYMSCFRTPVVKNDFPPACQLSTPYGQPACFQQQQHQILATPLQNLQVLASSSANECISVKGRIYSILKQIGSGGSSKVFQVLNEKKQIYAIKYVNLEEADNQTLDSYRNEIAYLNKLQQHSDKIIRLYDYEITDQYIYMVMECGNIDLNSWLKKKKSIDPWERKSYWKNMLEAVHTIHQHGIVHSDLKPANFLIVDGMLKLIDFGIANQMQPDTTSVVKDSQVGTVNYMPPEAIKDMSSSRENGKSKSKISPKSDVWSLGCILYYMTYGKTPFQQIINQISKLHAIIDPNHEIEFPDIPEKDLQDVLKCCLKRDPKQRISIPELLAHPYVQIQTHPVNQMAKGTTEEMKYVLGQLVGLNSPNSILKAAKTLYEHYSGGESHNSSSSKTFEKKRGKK
Note: in the data inactive means no Kd found up to 30 µM.

Serine/threonine-protein kinase Nek7, sequence (Q8TDX7 whole entry): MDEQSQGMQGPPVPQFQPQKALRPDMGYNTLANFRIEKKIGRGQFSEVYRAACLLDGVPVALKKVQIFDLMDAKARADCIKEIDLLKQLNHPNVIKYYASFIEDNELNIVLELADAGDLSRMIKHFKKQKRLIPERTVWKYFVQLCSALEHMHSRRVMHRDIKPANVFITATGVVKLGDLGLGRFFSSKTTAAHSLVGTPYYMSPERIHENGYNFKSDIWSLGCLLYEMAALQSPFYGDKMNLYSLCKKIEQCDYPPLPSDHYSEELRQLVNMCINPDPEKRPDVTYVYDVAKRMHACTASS

Regarding `Cc1cc(Nc2nc(N[C@@H](C)c3ncc(F)cn3)ncc2Cl)n[nH]1` [AZD-1480], the Kd is > 30 µM (inactive) in assay [1]; > 30 µM (inactive) in [2]; > 30 µM (inactive) in assay [3]; > 30 µM (inactive) in [4]; > 30 µM (inactive) in [5]; 0.238 µM (active) in assay [6]. The Kd in [7], in [8], in assay [9], in [10], in [11] and in assay [12] was > 30 µM (inactive) throughout. In addition, the Kd (on Myosin-10; in assay [13]) was > 30 µM (inactive) in each case.
Take `O=C(Nc1ccc(OC(F)(F)F)cc1)c1sccc1NCc1ccnc2ccccc12` [OSI-930]: the Kd in [1], in assay [2], in [3], in assay [14], in assay [4] and in assay [5] was > 30 µM (inactive) throughout. Further, the Kd in assay [6] was 0.388 µM (active); in [8], > 30 µM (inactive); in [10] it was > 30 µM (inactive); in [11], > 30 µM (inactive); in [12] it was > 30 µM (inactive); at Myosin-10 it was > 30 µM (inactive). For the same compound, the Kd in [15] and in assay [13] was > 30 µM (inactive) each time.
As to `COc1ccc(-c2ccc3ncc4c(c3c2)n(-c2ccc(N3CCNCC3)c(C(F)(F)F)c2)c(=O)n4C)cn1` [BGT-226 FREE BASE], the Kd in assay [1], in assay [2], in [3], in [14], in assay [5] and in assay [6] was > 30 µM (inactive) in each case. Also, the Kd (in assay [7]; in [8]; in assay [10]; in [11]; in assay [12]; on Myosin-10) was > 30 µM (inactive) each time. Moreover, in assay [15], the Kd was > 30 µM (inactive).
With `Cc1c(Cn2c(C)nc3c(C(=O)O)cc(N4CCOCC4)cc32)cccc1C(F)(F)F` [GSK-2636771], the Kd in assay [1], in [2], in assay [4], in assay [5], in assay [6] and in assay [7] was > 30 µM (inactive) throughout. The Kd in [9], in assay [10], in assay [11], in assay [12] and in [15] was > 30 µM (inactive) in each case.
As to `Cn1c(=O)c(F)c(Nc2ccc(I)cc2F)c2c(=O)n(C[C@@H](O)CO)cnc21` [TAK-733], the Kd in assay [1], in assay [2], in assay [3], in [14], in [5] and in assay [6] was > 30 µM (inactive) in each case. Further, the Kd in assay [7], in assay [8], in assay [9], in assay [10], in assay [11] and in [12] was > 30 µM (inactive) each time. Further, the Kd (at Myosin-10; in assay [15]; in assay [13]) was > 30 µM (inactive) throughout.
Regarding `CC(C)CC(=O)Nc1[nH]nc2c1CN(C(=O)C1CCN(C)CC1)C2(C)C` [PHA-793887], the Kd in assay [1], in assay [2], in [3], in assay [14], in assay [7] and in assay [10] was > 30 µM (inactive) throughout. Moreover, at Myosin-10, the Kd was > 30 µM (inactive).
Regarding `S=C(NCc1ccc2c(c1)OCO2)N1CCN(c2ncnc3c2oc2ccccc23)CC1` [AMUVATINIB], the Kd in assay [1], in assay [2], in [3], in assay [4], in assay [5] and in [6] was > 30 µM (inactive) each time. Moreover, the Kd (in assay [7]; in [9]; in assay [10]; on Myosin-10; in [13]) was > 30 µM (inactive) in each case.
As to `COc1cc(Nc2ncc(F)c(Nc3ccc4c(n3)N(COP(=O)(O)O)C(=O)C(C)(C)O4)n2)cc(OC)c1OC` [FOSTAMATINIB], the Kd in [3] is > 30 µM (inactive); in [14] it was > 30 µM (inactive); in assay [5], > 30 µM (inactive); in assay [6], 1.15 µM (active); in assay [7], > 30 µM (inactive); in assay [9] it was > 30 µM (inactive). In addition, the Kd (in assay [10]; in assay [11]; in [12]; on Myosin-10; in [15]; in assay [13]) was > 30 µM (inactive) each time.
For `O=S(=O)(c1cccc2cnccc12)N1CCCNCC1` [FASUDIL], the Kd in assay [1], in assay [2], in [3], in assay [14], in [7] and in assay [10] was > 30 µM (inactive) throughout. The Kd (in [11]; in [12]; on Myosin-10; in [15]; in [13]) was > 30 µM (inactive) each time.
